Assay results as given in patent publication US7351744B2, “Naphthalene derivatives as termite repellents and toxicants” (Board of Supervisors of Louisiana State University and …, priority 2003, dated 2008).

Tested on: C. formosanus workers
Assay: whole plant or invertebrate
Assay type: in vivo, Coptotermes formosanus
Settings: for Consumption (mg) day 8: wood slice
Procedure: Three-chambered transparent plastic containers as described in Example 4 were used to test the effectiveness of 2′-acetonaphthone as a barrier to prevent termites from reaching a food source. Each tested concentration of 2′-acetonaphthone was dissolved in 60 ml ethanol and mixed with 600 g of sand. For a control, 600 g of sand was mixed with 60 ml ethanol. The untreated and treated sand were placed in holding containers, and kept overnight at ambient conditions for solvent evaporation. In each container, sand was mixed with 60 ml DDH2O. Into the middle chamber, 110 g of either treated or untreated sand was gently added, packed, and leveled to clearly see tunnels. Six replicates were used for each concentration and control. Weighed balsa wood slices (0.159 cm×3.5 cm×6.0 cm, Ochroma lagopus Swartz) were placed in one of the two lateral chambers and wetted with 1 ml DDH2O. Into each container, 200 workers and 20 soldiers were released in the opposite lateral chamber from the wood slice. Termites were thus required to cross through the treated sand in the middle chamber to reach the food source. Containers were covered, and incubated in complete darkness at 27.4° C. and 70% RH. If necessary, 1 ml DDH2O was added to the sand and wood slice twice a week to maintain proper moisture. Three separate experiments were conducted using the same technique with different colonies.
In the first experiment, termites from Colony BS were used, and tested concentrations of 2′-acetonaphthone were 0.0, 16.67, 33.33, 50.0, 100.0, and 200.0 mg/kg sand. The number of dead workers was recorded daily to day 6. On day 6, the number of living workers in the releasing chamber was also recorded, and the bottoms of the three-chambered containers were scanned (ScanJet 4C, Hewlett-Packard, Palo Alto, Calif.). The images were printed in actual size, and the tunnel areas measured. After 8 days, the total number of living workers in each container was recorded; and the wood slices were gently cleaned using deionized water with a small brush. The slices were then oven dried at 60° C. for 3 h and reweighed. The difference in weight of the wood slices from the initial weighing was used to calculate food consumption.
The experiment was repeated a third time to further test for molting failures. The protocol was described as above. Five concentrations of 2′-acetonaphthone (4.15, 8.33, 16.67, 33.33, and 66.67 mg/kg sand) were evaluated using termites from colony WB. Tunnels were scanned, printed, and areas measured on days 2, 3, 4 and 7. Percent survival and food consumption were calculated on day 12 as previously described. To evaluate the effect of 2′-acetonaphthone treatments on worker survival, tunnel area and food consumption, an analysis of variance was conducted followed by a least significant difference procedure.

[1] = Coptotermes formosanus, 168 h, read-out: Mortality (%), day 7

CC(=O)c1ccc2ccccc2c1 [2′-acetonaphthone]
Food consumption (mg) day 12 (4.16 mg kg^−1, colony E): 27.1 ± 2.3 b mg
Molting failure (%), day 7 (4.16 mg kg^−1, colony E): 26.7 ± 6.0 a %
Survival (%) day 12 (4.16 mg kg^−1, colony E): 34.2 ± 6.0 a %
Termite (%), workers counted in the releasing chambers on day 5 (4.16 mg kg^−1, colony E): 34.9 ± 2.8 b %
Tunnel area (cm^2), day 12 (4.16 mg kg^−1, colony E): 22.8 ± 4.4 a cm^2
Food consumption (mg) day 12 (4.16 mg/kg, colony WB): 35.0 ± 13.8 a mg
Survival (%) day 12 (4.16 mg/kg, colony WB): 55.8 ± 7.3 a %
Tunnel area (cm^2), day 2 (4.16 mg/kg, colony WB): 3.4 ± 1.6 a cm^2
Tunnel area (cm^2), day 3 (4.16 mg/kg, colony WB): 6.1 ± 2.6 ab cm^2
Tunnel area (cm^2), day 4 (4.16 mg/kg, colony WB): 8.0 ± 2.7 ab cm^2
Tunnel area (cm^2), day 7 (4.16 mg/kg, colony WB): 17.0 ± 4.5 a cm^2
Food consumption (mg) day 12 (8.33 mg kg^−1, colony E): 0.0 ± 0.0 c mg
Molting failure (%), day 7 (8.33 mg kg^−1, colony E): 11.5 ± 1.9 b %
Survival (%) day 12 (8.33 mg kg^−1, colony E): 4.2 ± 1.9 b %
Termite (%), workers counted in the releasing chambers on day 5 (8.33 mg kg^−1, colony E): 77.9 ± 4.5 a %
Tunnel area (cm^2), day 12 (8.33 mg kg^−1, colony E): 2.8 ± 1.9 b cm^2
Food consumption (mg) day 12 (8.33 mg/kg, colony WB): 8.3 ± 3.1 b mg
Survival (%) day 12 (8.33 mg/kg, colony WB): 7.4 ± 3.3 b %
Tunnel area (cm^2), day 2 (8.33 mg/kg, colony WB): 2.3 ± 1.3 a cm^2
Tunnel area (cm^2), day 3 (8.33 mg/kg, colony WB): 3.1 ± 1.2 bc cm^2
Tunnel area (cm^2), day 4 (8.33 mg/kg, colony WB): 3.5 ± 1.3 bc cm^2
Tunnel area (cm^2), day 7 (8.33 mg/kg, colony WB): 4.5 ± 1.8 b cm^2
Food consumption (mg) day 12 (16.67 mg kg^−1, colony E): 0.0 ± 0.0 c mg
Molting failure (%), day 7 (16.67 mg kg^−1, colony E): 13.9 ± 1.2 b %
Survival (%) day 12 (16.67 mg kg^−1, colony E): 0.0 ± 0.0 b %
Termite (%), workers counted in the releasing chambers on day 5 (16.67 mg kg^−1, colony E): 78.6 ± 4.0 a %
Tunnel area (cm^2), day 12 (16.67 mg kg^−1, colony E): 0.0 ± 0.0 b cm^2
Survival (%) day 8 (16.67 mg/kg sand, colony BS): 6.8 ± 6.7 b %
Termite (%) day 6, percent workers in the releasing chambers (16.67 mg/kg sand, colony BS): 39.8 ± 8.8 b %
Tunnel area (cm^2) day 6 (16.67 mg/kg sand, colony BS): 1.4 ± 0.9 b cm^2
Consumption (mg) day 8 (16.67 mg/kg sand, colony BS): 3.3 ± 3.3 b mg
Food consumption (mg) day 12 (16.67 mg/kg, colony WB): 3.3 ± 2.1 b mg
Survival (%) day 12 (16.67 mg/kg, colony WB): 0.0 ± 0.0 b %
Tunnel area (cm^2), day 2 (16.67 mg/kg, colony WB): 0.9 ± 0.4 a cm^2
Tunnel area (cm^2), day 3 (16.67 mg/kg, colony WB): 1.6 ± 1.0 bc cm^2
Tunnel area (cm^2), day 4 (16.67 mg/kg, colony WB): 1.7 ± 1.0 c cm^2
Tunnel area (cm^2), day 7 (16.67 mg/kg, colony WB): 0.7 ± 0.5 b cm^2
Food consumption (mg) day 12 (33.33 mg kg^−1, colony E): 0.0 ± 0.0 c mg
Molting failure (%), day 7 (33.33 mg kg^−1, colony E): 15.9 ± 2.4 b %
Survival (%) day 12 (33.33 mg kg^−1, colony E): 0.0 ± 0.0 b %
Termite (%), workers counted in the releasing chambers on day 5 (33.33 mg kg^−1, colony E): 79.6 ± 2.2 a %
Tunnel area (cm^2), day 12 (33.33 mg kg^−1, colony E): 0.0 ± 0.0 b cm^2
Survival (%) day 8 (33.33 mg/kg sand, colony BS): 19.1 ± 9.1 b %
Termite (%) day 6, percent workers in the releasing chambers (33.33 mg/kg sand, colony BS): 39.8 ± 10.2 b %
Tunnel area (cm^2) day 6 (33.33 mg/kg sand, colony BS): 5.5 ± 2.1 b cm^2
Consumption (mg) day 8 (33.33 mg/kg sand, colony BS): 11.7 ± 8.2 b mg
Food consumption (mg) day 12 (33.33 mg/kg, colony WB): 3.3 ± 2.1 b mg
Survival (%) day 12 (33.33 mg/kg, colony WB): 0.1 ± 0.1 b %
Tunnel area (cm^2), day 2 (33.33 mg/kg, colony WB): 0.0 ± 0.0 a cm^2
Tunnel area (cm^2), day 3 (33.33 mg/kg, colony WB): 0.0 ± 0.0 c cm^2
Tunnel area (cm^2), day 4 (33.33 mg/kg, colony WB): 0.0 ± 0.0 c cm^2
Tunnel area (cm^2), day 7 (33.33 mg/kg, colony WB): 0.0 ± 0.0 b cm^2
Survival (%) day 8 (50.0 mg/kg sand, colony BS): 1.8 ± 1.8 b %
Termite (%) day 6, percent workers in the releasing chambers (50.0 mg/kg sand, colony BS): 31.2 ± 2.8 b %
Tunnel area (cm^2) day 6 (50.0 mg/kg sand, colony BS): 2.5 ± 1.1 b cm^2
Consumption (mg) day 8 (50.0 mg/kg sand, colony BS): 0.0 ± 0.0 b mg
Food consumption (mg) day 12 (66.67 mg/kg, colony WB): 4.2 ± 3.3 b mg
Survival (%) day 12 (66.67 mg/kg, colony WB): 0.0 ± 0.0 b %
Tunnel area (cm^2), day 2 (66.67 mg/kg, colony WB): 0.4 ± 0.2 a cm^2
Tunnel area (cm^2), day 3 (66.67 mg/kg, colony WB): 0.4 ± 0.2 c cm^2
Tunnel area (cm^2), day 4 (66.67 mg/kg, colony WB): 0.4 ± 0.2 c cm^2
Tunnel area (cm^2), day 7 (66.67 mg/kg, colony WB): 0.4 ± 0.2 b cm^2
Survival (%) day 8 (100.0 mg/kg sand, colony BS): 0.0 ± 0.0 b %
Termite (%) day 6, percent workers in the releasing chambers (100.0 mg/kg sand, colony BS): 79.8 ± 8.7 a %
Tunnel area (cm^2) day 6 (100.0 mg/kg sand, colony BS): 3.3 ± 1.6 b cm^2
Consumption (mg) day 8 (100.0 mg/kg sand, colony BS): 0.0 ± 0.0 b mg
Survival (%) day 8 (200.0 mg/kg sand, colony BS): 1.3 ± 1.3 b %
Termite (%) day 6, percent workers in the releasing chambers (200.0 mg/kg sand, colony BS): 81.8 ± 6.0 a %
Tunnel area (cm^2) day 6 (200.0 mg/kg sand, colony BS): 0.0 ± 0.0 b cm^2
Consumption (mg) day 8 (200.0 mg/kg sand, colony BS): 0.0 ± 0.0 b mg
mortality at 4.16 mg/kg [1]: 35.9 ± 4.4%
mortality at 8.33 mg/kg [1]: 71.8 ± 8.8%
mortality at 16.67 mg/kg [1]: 99.5 ± 0.5%
mortality at 33.33 mg/kg [1]: 100%
Food consumption (all treatments 16.67 to 200 mg/kg, control 98.3 mg, day 8): ≤ 11.7 mg
concentration giving significant reduction in tunneling and feeding activity (as low as): 8 mg/kg sand
concentration at which no food was consumed (colony BS, day 8): ≥ 50 mg/kg
concentration at which no termite reached the feeding chamber (colony E): > 8.16 mg/kg
concentration forming an effective barrier (toxic, inhibits tunneling and feeding) (treated sand): ≥ 8.33 mg/kg
